# System: Nephotettix cincticeps
# Assay: Insecticidal activity against Nephotettix cincticeps (green rice leafhopper) in compound treated germinated rice seedlings assessed as mortality measured after 5 days
# Assay type: functional
row,Compound,LC90 [ppm]
1,O=[N+]([O-])/C=C1\NCCN1Cc1ccc(Cl)nc1,0.32
2,O=[N+]([O-])/C=C1\NCCN1Cc1ccco1,200
3,O=[N+]([O-])/C=C1\NCCN1Cc1cccs1,200
4,O=[N+]([O-])/C=C1\NCCN1Cc1ccc[nH]1,200
5,O=[N+]([O-])/C=C1\NCCN1Cc1cccnc1,8
6,O=[N+]([O-])/C=C1\NCCN1Cc1cncs1,8
7,O=[N+]([O-])/C=C1\NCCN1Cc1ccccc1,200
8,O=[N+]([O-])/C=C1\NCCN1Cc1cnc(Cl)s1,0.32
9,O=[N+]([O-])/C=C1\NCCN1Cc1csc(Cl)n1,200
10,Cc1ncc(CN2CCN/C2=C\[N+](=O)[O-])s1,1.6
11,Cc1cc(CN2CCN/C2=C\[N+](=O)[O-])on1,1.6
12,O=[N+]([O-])/C=C1\NCCN1Cc1cc(Br)no1,1.6
13,Cn1cc(CN2CCN/C2=C\[N+](=O)[O-])cn1,1.6
14,O=[N+]([O-])/C=C1\NCCN1Cc1ccc(Br)s1,40
15,O=[N+]([O-])/N=C1\NCCN1Cc1ccc(Cl)nc1 [IMIDACLOPRID],0.32
16,O=[N+]([O-])/N=C1\NCCN1Cc1cnc(Cl)s1 [IMIDACLOTHIZ],0.32

# From ChEMBL document CHEMBL3045751, “Structural Modification of the 6-Chloropyridyl Moiety in the Imidacloprid, Skeleton: Introduction of a Five-membered Heteroaromatic Ring and the Resulting Insecticidal Activity” (1993)
